Marks after values point to notes of the source that are not given here. Values belong to the molecule of their own block, whether it stands above or below them.
Assays:
PDGFRβ (BxPC3-luc cells) = molecular target: T1, PDGFRβ (BxPC3-luc cells) (Homo sapiens, UniProt P09619); experiment: Competitive binding assay of [^125I]4 with BxPC3-luc cells; conditions: displacement of [^125I]4, BxPC3-luc cells, 37 °C, 4 h
T1 construct: host or cells: BxPC3-luc cells
Description: We investigated the competitive binding of [^125I]4 to BxPC3-luc cells with PDGFRβ ligand, 1, 2, and 3.
BxPC3-luc cells in medium containing 10% FBS and antibiotics were seeded on 24-well plates (50,000 cells/wells) and incubated for 24 h in a 5% CO2 incubator at 37 °C. Nine concentrations of displacing nonradiolabeled ligands (1, 2 and 3) (ranging from 1 pM to 1 mM) and [^125I]4 in medium without FBS were incubated at 37 °C for 4 h. After washing the cells twice using 250 µL of ice-cold PBS, the unbound radioligand was removed. The cells were dissolved using 250 µL of 1 M NaOH and wells were washed with 250 µL of 1 M NaOH. The bound radioactivity was determined using a gamma counter.
All data were statisticaly analyzed using GraphPad 5.0 software (La Jolla, CA, USA) and expressed as mean ± standard deviation (SD). Significance for in vitro blocking experiments was determined by a one-way analysis of variance (ANOVA) followed by Dunnett’s post hoc test compared to the control group. Significance in cell viability assays was determined by ANOVA followed by Tukey’s post hoc test. IC50 values for the binding assay were calculated by nonlinear regression. Significant differences in biodistribution experiments between [^77Br]2 and [^77Br]3 groups were determined using unpaired Student’s t-test. Significance for in vivo blocking studies between control and blocking groups were determined by unpaired Student’s t-test. Results were considered statistically significant at p < 0.05.

[1] = Biodistribution in ddY mice; assay type: in vivo; conditions: i.v. co-injection
Description: In this study, to minimize both the number of mice consumed in the experiment and the potential for experimental errors, we co-injected radiobrominated and radioiodinated compounds into mice[30],[31]. High radioactivity in the liver, small intestine, and large intestine was observed.
(§1) Mice were intravenously injected via the tail with 100 µL of saline solution of [^77Br]2 and [^125I]4 or [^77Br]3 and [^125I]5 (74 kBq, respectively), containing 10% ethanol and 1% tween-80. The ddY mice were sacrificed at 10 min, 1, 4, and 24 h postinjection. Meanwhile, tumor-bearing mice were sacrificed at 1 h postinjection.
(§2) Tissues in mice were resected and weighed. The radioactivity of the tissues was counted by a gamma counter and counts were corrected for background radiation. The data were expressed as percent injection dose per gram tissue (%ID/g).

BxPC3-luc tumor = experiment: Biodistribution in BxPC3-luc tumor-bearing mice; assay type: in vivo, BALB/c nu/nu mice; conditions: i.v. co-injection, 1 h
Description: We investigated the biodistribution of the radiotracers in BxPC3-luc tumor-bearing mice by co-injecting [^77Br]2 with [^125I]4 (Table 3), and [^77Br]3 with [^125I]5 (Table 4).
Animal experiments were conducted in strict accordance with the Guidelines for the Care and Use of Laboratory Animals of Kanazawa University. The animal experimental protocols used were approved by the Committee on Animal Experimentation of Kanazawa University (Permit Number: AP-163766). The animals were housed with free access to food and water at approximately 23 °C with a 12 h light/dark schedule. ddY mice (six-week-old, male, 27–30 g) and BALB/c nu/nu mice (four-week-old, female, 12–17 g) were purchased from Japan SLC Inc. (Hamamatsu, Japan). For preparing the tumor-bearing mice, BxPC3-luc cells (5 × 10^6 cells) were subcutaneously injected into the left shoulder of BALB/c nu/nu mice. The tumor reached palpable size after two weeks of the inoculation.
as §1, §2

[2] = set-up: method as in PMID 28838832; conditions: radioiodinated compounds; cited from earlier work

T1 sequence (P09619 33-1106): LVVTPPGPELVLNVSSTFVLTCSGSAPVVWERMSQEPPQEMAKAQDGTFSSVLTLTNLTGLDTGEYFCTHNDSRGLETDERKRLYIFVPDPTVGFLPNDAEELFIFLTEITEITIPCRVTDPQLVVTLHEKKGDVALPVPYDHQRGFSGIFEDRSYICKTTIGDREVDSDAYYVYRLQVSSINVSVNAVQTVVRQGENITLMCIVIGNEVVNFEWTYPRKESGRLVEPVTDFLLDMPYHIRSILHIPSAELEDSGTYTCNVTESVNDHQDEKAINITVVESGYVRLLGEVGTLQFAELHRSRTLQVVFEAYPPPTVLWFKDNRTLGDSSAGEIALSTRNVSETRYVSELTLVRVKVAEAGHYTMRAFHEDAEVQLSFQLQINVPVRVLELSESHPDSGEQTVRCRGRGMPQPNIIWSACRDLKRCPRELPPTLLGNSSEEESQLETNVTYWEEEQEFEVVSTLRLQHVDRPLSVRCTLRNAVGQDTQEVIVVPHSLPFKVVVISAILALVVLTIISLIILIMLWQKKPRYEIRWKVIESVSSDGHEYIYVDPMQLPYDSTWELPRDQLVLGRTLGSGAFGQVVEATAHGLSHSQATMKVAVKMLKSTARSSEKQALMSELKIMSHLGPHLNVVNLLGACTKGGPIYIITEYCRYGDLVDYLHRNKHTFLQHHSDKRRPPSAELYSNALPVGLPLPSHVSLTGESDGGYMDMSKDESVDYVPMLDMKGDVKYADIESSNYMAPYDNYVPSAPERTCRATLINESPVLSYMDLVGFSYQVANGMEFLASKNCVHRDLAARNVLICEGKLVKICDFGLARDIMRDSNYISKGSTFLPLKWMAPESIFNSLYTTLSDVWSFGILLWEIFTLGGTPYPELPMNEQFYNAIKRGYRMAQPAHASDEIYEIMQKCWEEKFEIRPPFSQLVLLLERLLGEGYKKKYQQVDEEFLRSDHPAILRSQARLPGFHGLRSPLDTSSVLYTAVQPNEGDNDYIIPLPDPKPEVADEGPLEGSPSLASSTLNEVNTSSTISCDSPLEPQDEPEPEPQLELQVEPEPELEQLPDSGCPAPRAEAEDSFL

IC50 (PDGFRβ (BxPC3-luc cells)): 183 ± 8 nM
SMILES: COCCOc1ccc2c(c1)ncn2-c1ccc2cccc(N3CCC(N)CC3)c2n1 [Compound 1, 1-{2-[5-(2-methoxyethoxy)-1H-benzo[d]imidazol-1-yl]quinolin-8-yl}piperidin-4-amine, reference compound]

IC50 (PDGFRβ (BxPC3-luc cells)): 1280 nM
SMILES: COCCOc1ccc2c(c1)ncn2-c1ccc2cccc(N3CCC(NC(=O)c4cccc(Br)c4)CC3)c2n1 [Compound 3, N-3-bromobenzoyl-1-{2-[5-(2-methoxyethoxy)-1H-benzo[d]imidazol-1-yl]quinolin-8-yl}-piperidin-4-amine]

Radioactivity in Kidney ([1]; 10 min): 5.23 (0.65) %injected dose/gram tissue
Radioactivity in Large intestine ([1]; 10 min): 0.75 (0.06)^* %injected dose/gram tissue
Radioactivity in Lung ([1]; 10 min): 1.80 (0.30)^* %injected dose/gram tissue
Radioactivity in Muscle ([1]; 10 min): 0.97 (0.16)^* %injected dose/gram tissue
Radioactivity in Pancreas ([1]; 10 min): 2.41 (0.20) %injected dose/gram tissue
Radioactivity in Spleen ([1]; 10 min): 1.72 (0.23) %injected dose/gram tissue
Radioactivity in Stomach ([1]; 10 min): 2.09 (1.12) %injected dose /organ
Radioactivity in Kidney ([1]; 1 h): 1.57 (0.42) %injected dose/gram tissue
Radioactivity in Large intestine ([1]; 1 h): 3.46 (2.18) %injected dose/gram tissue
Radioactivity in Lung ([1]; 1 h): 1.07 (0.08) %injected dose/gram tissue
Radioactivity in Muscle ([1]; 1 h): 0.31 (0.13)^* %injected dose/gram tissue
Radioactivity in Stomach ([1]; 1 h): 0.78 (0.19) %injected dose /organ
Radioactivity in Kidney ([1]; 4 h): 0.36 (0.10)^* %injected dose/gram tissue
Radioactivity in Liver ([1]; 4 h): 1.21 (0.96) %injected dose/gram tissue
Radioactivity in Lung ([1]; 4 h): 0.50 (0.19) %injected dose/gram tissue
Radioactivity in Muscle ([1]; 4 h): 0.16 (0.08)^* %injected dose/gram tissue
Radioactivity in Small intestine ([1]; 4 h): 1.32 (0.66)^* %injected dose/gram tissue
Radioactivity in Stomach ([1]; 4 h): 0.27 (0.10) %injected dose /organ
Radioactivity in Stomach ([1]; 24 h): 0.01 (0.00)^** %injected dose /organ
Radioactivity in Stomach (BxPC3-luc tumor): 0.27 (0.06)^* %injected dose /organ
SMILES: COCCOc1ccc2c(c1)ncn2-c1ccc2cccc(N3CCC(NC(=O)c4cccc([125I])c4)CC3)c2n1 [[^125I]5, [^125I]N-3-iodobenzoyl-1-{2-[5-(2-methoxyethoxy)-1H-benzo[d]imidazol-1-yl]quinolin-8-yl}-piperidin-4-amine, reference compound]
Radioactivity in Blood ([1]; 10 min): 0.94 (0.14)^** %injected dose/gram tissue
Radioactivity in Bone ([1]; 10 min): 0.81 (0.11)^** %injected dose/gram tissue
Radioactivity in Brain ([1]; 10 min): 0.19 (0.03)^** %injected dose/gram tissue
Radioactivity in Heart ([1]; 10 min): 1.66 (0.23)^** %injected dose/gram tissue
Radioactivity in Liver ([1]; 10 min): 16.37 (2.05)^** %injected dose/gram tissue
Radioactivity in Small intestine ([1]; 10 min): 9.59 (1.71)^** %injected dose/gram tissue
Radioactivity in Blood ([1]; 1 h): 0.26 (0.05)^** %injected dose/gram tissue
Radioactivity in Bone ([1]; 1 h): 0.64 (0.31)^*** %injected dose/gram tissue
Radioactivity in Brain ([1]; 1 h): 0.07 (0.03)^** %injected dose/gram tissue
Radioactivity in Heart ([1]; 1 h): 0.39 (0.15)^** %injected dose/gram tissue
Radioactivity in Liver ([1]; 1 h): 3.32 (0.49)^** %injected dose/gram tissue
Radioactivity in Pancreas ([1]; 1 h): 0.86 (0.07)^** %injected dose/gram tissue
Radioactivity in Small intestine ([1]; 1 h): 24.03 (1.45)^** %injected dose/gram tissue
Radioactivity in Spleen ([1]; 1 h): 0.70 (0.16)^** %injected dose/gram tissue
Radioactivity in Blood ([1]; 4 h): 0.08 (0.01)^** %injected dose/gram tissue
Radioactivity in Bone ([1]; 4 h): 0.40 (0.09)^** %injected dose/gram tissue
Radioactivity in Brain ([1]; 4 h): 0.01 (0.00)^** %injected dose/gram tissue
Radioactivity in Heart ([1]; 4 h): 0.20 (0.04)^** %injected dose/gram tissue
Radioactivity in Large intestine ([1]; 4 h): 18.55 (1.85)^** %injected dose/gram tissue
Radioactivity in Pancreas ([1]; 4 h): 0.27 (0.07)^** %injected dose/gram tissue
Radioactivity in Spleen ([1]; 4 h): 0.27 (0.09)^** %injected dose/gram tissue
Radioactivity in Blood ([1]; 24 h): 0.01 (0.00)^** %injected dose/gram tissue
Radioactivity in Bone ([1]; 24 h): 0.06 (0.00)^** %injected dose/gram tissue
Radioactivity in Brain ([1]; 24 h): 0.00 (0.00)^** %injected dose/gram tissue
Radioactivity in Heart ([1]; 24 h): 0.02 (0.01)^** %injected dose/gram tissue
Radioactivity in Kidney ([1]; 24 h): 0.05 (0.00)^** %injected dose/gram tissue
Radioactivity in Large intestine ([1]; 24 h): 0.02 (0.00)^** %injected dose/gram tissue
Radioactivity in Liver ([1]; 24 h): 0.06 (0.00)^** %injected dose/gram tissue
Radioactivity in Lung ([1]; 24 h): 0.01 (0.00)^** %injected dose/gram tissue
Radioactivity in Muscle ([1]; 24 h): 0.01 (0.00)^** %injected dose/gram tissue
Radioactivity in Pancreas ([1]; 24 h): 0.02 (0.00)^** %injected dose/gram tissue
Radioactivity in Small intestine ([1]; 24 h): 0.01 (0.00)^** %injected dose/gram tissue
Radioactivity in Spleen ([1]; 24 h): 0.02 (0.00)^** %injected dose/gram tissue
Radioactivity in Blood (BxPC3-luc tumor): 0.23 (0.02)^** %injected dose/gram of tissue
Radioactivity in Bone (BxPC3-luc tumor): 0.31 (0.04)^** %injected dose/gram of tissue
Radioactivity in Brain (BxPC3-luc tumor): 0.05 (0.00)^** %injected dose/gram of tissue
Radioactivity in BxPC3-luc tumor (BxPC3-luc tumor): 0.55 (0.09)^* %injected dose/gram of tissue
Radioactivity in Heart (BxPC3-luc tumor): 0.42 (0.05)^** %injected dose/gram of tissue
Radioactivity in Kidney (BxPC3-luc tumor): 1.13 (0.11)^** %injected dose/gram of tissue
Radioactivity in Large intestine (BxPC3-luc tumor): 7.98 (3.79) %injected dose/gram of tissue
Radioactivity in Liver (BxPC3-luc tumor): 4.83 (0.71)^** %injected dose/gram of tissue
Radioactivity in Lung (BxPC3-luc tumor): 1.16 (0.23)^** %injected dose/gram of tissue
Radioactivity in Muscle (BxPC3-luc tumor): 0.38 (0.06)^** %injected dose/gram of tissue
Radioactivity in Pancreas (BxPC3-luc tumor): 1.25 (0.17)^** %injected dose/gram of tissue
Radioactivity in Small intestine (BxPC3-luc tumor): 46.95 (2.88)^** %injected dose/gram of tissue
Radioactivity in Spleen (BxPC3-luc tumor): 0.61 (0.06)^** %injected dose/gram of tissue
n-octanol/phosphate buffer partition coefficient (log P) [2]: 3.19 ± 0.17

Reference: PMC6039436, “Radiobrominated benzimidazole-quinoline derivatives as Platelet-derived growth factor receptor beta (PDGFRβ) imaging probes” (Scientific Reports, 2018)
